The values below come from patent US20170298347A1, “NOVEL FUSION-CIRCULAR RNAs AND USES THEREOF” (BETH ISRAEL DEACONESS MEDICAL CENTER, priority 2016, published 2017).

In this assay the test system is K562 cells. As to the kind of experiment: Apoptosis (AnnexinV/7-AAD) in K562 cells treated with Ara-C or ATO. The format is cell-based, human. As to conditions: K562 transduced with empty vector; ATO 1 μM, Ara-C 0.5 μM. The protocol:
K562 cells (Lozzio and Lozzio, 1979) were then transduced with viral vectors expressing f-circM9. Cells transduced only with an empty vector were used as control. F-circM9-expressing cells were sorted for a pure population and were subsequently subjected to treatment with Ara-C and ATO. […] On the contrary, clear differences were noticed in treated cells.
THP-1, K562, U937, HL-60, Kasumi and NB4 cell lines were maintained in RPMI medium supplemented with 10% FBS. MEFs Arf−/− cells were grown in DMEM supplemented with 10% FBS. Primary leukemic cells transduced with MLL/AF9 cDNA were maintained in StemSpan medium (Stem Cell Technologies) supplemented with IL6 (15 ng/ml), IL3 (15 ng/ml) TPO (50 ng/ml) and SCF (50 ng/ml) during the transduction with retroviral vectors. Cells were grown at 37° C. in a 5% CO2 humidified incubator. Fractionation of the cells to separate nucleus and cytoplasm has been performed using PARIS-kit (Ambion) following the manufacturer's instructions. The efficiency of the separation of the 2 fractions was assessed by Western blot analysis of β-actin (cytosol) and […] (nucleus). […]
Apoptotic cells were analyzed with 7AAD and Annexin-V-APC. Cells were stained for 15 minutes with both markers and then analyzed using LRSII (BD, Pharmingen).

With `Nc1ccn([C@@H]2O[C@H](CO)[C@@H](O)[C@@H]2O)c(=O)n1` [Ara-C, cytarabine], the “apoptosis upon drug treatment” value is listed as “signs of apoptosis”. The result for Arsenic trioxide [ATO] reads “signs of apoptosis”.
